Key:
Coxsackievirus B4 = assay: Antiviral activity against Coxsackievirus B4 J.V.B infected in African green monkey Vero cells assessed as reduction in viral-induced cytopathic effect by Reed and Muench analysis; assay type: functional; settings: Enterovirus B
Coxsackievirus B3 = assay: Antiviral activity against Coxsackievirus B3 (strain Nancy) infected in African green monkey Vero cells assessed as reduction in viral-induced cytopathic effect by Reed and Muench analysis; assay type: functional; settings: Enterovirus B
[1] = Cytotoxicity against African green monkey Vero cells assessed as growth inhibition after 48 hrs; assay type: cell-based; settings: chlorocebus sabaeus, read-out: TC50
[2] = Antiviral activity against Coxsackievirus B6 (strain Schmitt) infected in African green monkey Vero cells assessed as reduction in viral-induced cytopathic effect by Reed and Muench analysis; assay type: functional; settings: Enterovirus B
[3] = Selectivity index, ratio of TC50 for African green monkey Vero cells to IC50 for Coxsackievirus B6 (strain Schmitt) infected in African green monkey Vero cells; assay type: toxicity; settings: read-out: Selectivity Index
[4] = Selectivity index, ratio of TC50 for African green monkey Vero cells to IC50 for Coxsackievirus B3 (strain Nancy) infected in African green monkey Vero cells; assay type: toxicity; settings: read-out: Selectivity Index
[5] = Selectivity index, ratio of TC50 for African green monkey Vero cells to IC50 for Coxsackievirus B5 Faulkner infected in African green monkey Vero cells; assay type: toxicity; settings: read-out: Selectivity Index
[6] = Selectivity index, ratio of TC50 for African green monkey Vero cells to IC50 for Coxsackievirus B1 Conn-5 infected in African green monkey Vero cells; assay type: toxicity; settings: read-out: Selectivity Index
Coxsackievirus B1 = assay: Antiviral activity against Coxsackievirus B1 Conn-5 infected in African green monkey Vero cells assessed as reduction in viral-induced cytopathic effect by Reed and Muench analysis; assay type: functional; settings: Enterovirus B, Conn-5, Vero
[7] = Selectivity index, ratio of TC50 for African green monkey Vero cells to IC50 for Coxsackievirus B2 (strain Ohio-1) infected in African green monkey Vero cells; assay type: toxicity; settings: read-out: Selectivity Index
Coxsackievirus B5 = assay: Antiviral activity against Coxsackievirus B5 Faulkner infected in African green monkey Vero cells assessed as reduction in viral-induced cytopathic effect by Reed and Muench analysis; assay type: functional; settings: Enterovirus B
[8] = Antiviral activity against Coxsackievirus B2 (strain Ohio-1) infected in African green monkey Vero cells assessed as reduction in viral-induced cytopathic effect by Reed and Muench analysis; assay type: functional; settings: Enterovirus B
[9] = Selectivity index, ratio of TC50 for African green monkey Vero cells to IC50 for Coxsackievirus A16 shzh05-1 infected in African green monkey Vero cells; assay type: toxicity; settings: read-out: Selectivity Index
[10] = Selectivity index, ratio of TC50 for African green monkey Vero cells to IC50 for Coxsackievirus B4 J.V.B infected in African green monkey Vero cells; assay type: toxicity; settings: read-out: Selectivity Index
Coxsackievirus A16 = assay: Antiviral activity against Coxsackievirus A16 shzh05-1 infected in African green monkey Vero cells assessed as reduction in viral-induced cytopathic effect by Reed and Muench analysis; assay type: functional; settings: Enterovirus A, shzh05-1, Vero
[11] = Acute toxicity in po dosed Kunming mouse assessed as effect on body weight and survival administered as single dose measured up to 7 days; assay type: organism-based; settings: in vivo

In the case of `CCCC[C@@H]1[C@H]2CCCN3CCC[C@@H](CN1C(=O)c1cc(OC)c(OC)c(OC)c1)[C@@H]23`, the IC50 (Coxsackievirus B4) is reported as 4.94 µM, the IC50 (Coxsackievirus B3) is reported as 3.95 µM and the CC50 at 48 h [1] is reported as 115 to 200 µM. For the same compound, the IC50 [2] was 3.43 µM, the selectivity ratio [3] was 33.7 and the selectivity ratio [4] was over 50.6. The selectivity ratio [5] was 15.6, the selectivity ratio [6] was 23.4 and the IC50 (Coxsackievirus B1) was 4.94 µM. For the same compound, the selectivity ratio [7] was 33.7, the IC50 (Coxsackievirus B5) was 7.41 µM and the IC50 [8] was 3.43 µM. It also gave a selectivity ratio [9] of 18.7, a selectivity ratio [10] of 23.4 and an IC50 (Coxsackievirus A16) of 6.17 µM. For the same compound, the LD50 at 168 h [11] was 327 mg/kg.
In the case of `CCCC[C@@H]1[C@H]2CCCN3CCC[C@@H](CN1S(=O)(=O)c1ccsc1C(=O)OC)[C@@H]23`, the IC50 (Coxsackievirus B3) is reported as 4.94 µM, the CC50 at 48 h [1] is reported as over 200 µM and the selectivity ratio [4] is reported as over 40.5.
For `CCCC[C@@H]1[C@H]2CCCN3CCC[C@@H](CN1S(=O)(=O)c1cccc(C(N)=O)c1)[C@@H]23`, the IC50 (Coxsackievirus B3) was 7.47 µM, the CC50 at 48 h [1] was 230 µM and the selectivity ratio [4] was 30.7.
Work on `CCCC[C@@H]1[C@H]2CCCN3CCC[C@@H](CN1S(=O)(=O)c1sc(NC(C)=O)nc1C)[C@@H]23` yielded an IC50 (Coxsackievirus B3) of 2.06 µM, a CC50 at 48 h [1] of 96.2 µM and a selectivity ratio [4] of 46.7.
`CCCC[C@@H]1[C@H]2CCCN3CCC[C@@H](CN1C(=O)CC(=O)OC)[C@@H]23` showed an IC50 (Coxsackievirus B3) of 46.2 µM, a CC50 at 48 h [1] of over 200 µM and a selectivity ratio [4] of over 4.33.
`CCCC[C@@H]1[C@H]2CCCN3CCC[C@@H](CN1C(=O)c1ccccc1OC(C)=O)[C@@H]23` gave an IC50 (Coxsackievirus B3) of 14.1 µM, a CC50 at 48 h [1] of 241 µM and a selectivity ratio [4] of 17.1.
Compound `CCCC[C@@H]1[C@H]2CCCN3CCC[C@@H](CN1C(=O)CCC)[C@@H]23` has an IC50 (Coxsackievirus B3) of 32 µM, a CC50 at 48 h [1] of 200 µM and a selectivity ratio [4] of 6.24.
In the case of `CCCC[C@@H]1[C@H]2CCCN3CCC[C@@H](CN1Cc1ccc(C(=O)OC)cc1)[C@@H]23`, the IC50 (Coxsackievirus B3) is reported as 6.17 µM, the CC50 at 48 h [1] is reported as 96.2 µM and the selectivity ratio [4] is reported as 15.6.
For `CCCC[C@@H]1[C@H]2CCCN3CCC[C@@H](CN1C(=O)N1CCN(S(C)(=O)=O)C1=O)[C@@H]23`, the IC50 (Coxsackievirus B3) was 52.1 µM, the CC50 at 48 h [1] was over 469 µM and the selectivity ratio [4] was over 9.
Compound `CCCC[C@@H]1[C@H]2CCCN3CCC[C@@H](CN1S(=O)(=O)c1ccsc1C(=O)O)[C@@H]23` has an IC50 (Coxsackievirus B3) of 15 µM, a CC50 at 48 h [1] of over 200 µM and a selectivity ratio [4] of over 13.3.
With `CCCC[C@@H]1[C@H]2CCCN3CCC[C@@H](CN1S(=O)(=O)c1cccnc1)[C@@H]23` the IC50 (Coxsackievirus B4) was 3.43 µM, the IC50 (Coxsackievirus B3) was 3.99 µM and the CC50 at 48 h [1] was 200 to 592 µM. The IC50 [2] was 3.43 µM, the selectivity ratio [3] was over 58.1 and the selectivity ratio [4] was over 148. The selectivity ratio [5] was over 58.3, the selectivity ratio [6] was over 99 and the IC50 (Coxsackievirus B1) was 2.02 µM. It also gave a selectivity ratio [7] of over 59.7, an IC50 (Coxsackievirus B5) of 3.43 µM and an IC50 [8] of 3.35 µM. The selectivity ratio [9] was over 27, the selectivity ratio [10] was over 58.3 and the IC50 (Coxsackievirus A16) was 7.41 µM. It also gave an LD50 at 168 h [11] of 330 mg/kg.
For `CCCC[C@@H]1[C@H]2CCCN3CCC[C@@H](CN1C(=O)c1c(C)noc1C)[C@@H]23`, the IC50 (Coxsackievirus B3) was 6.87 µM, the CC50 at 48 h [1] was over 556 µM and the selectivity ratio [4] was over 81.
`CCCC[C@@H]1[C@H]2CCCN3CCC[C@@H](CN1C(=O)c1ccccc1O)[C@@H]23` showed an IC50 (Coxsackievirus B3) of over 62.3 µM and a CC50 at 48 h [1] of 324 µM.
In the case of `CCCC[C@@H]1[C@H]2CCCN3CCC[C@@H](CN1S(=O)(=O)c1ccccc1C(N)=O)[C@@H]23`, the IC50 (Coxsackievirus B3) is reported as 23.3 µM, the CC50 at 48 h [1] is reported as 276 µM and the selectivity ratio [4] is reported as 11.8.
For `CCCC[C@@H]1[C@H]2CCCN3CCC[C@@H](CN1S(=O)(=O)c1cn(C)cn1)[C@@H]23`, the IC50 (Coxsackievirus B3) was over 66.7 µM and the CC50 at 48 h [1] was over 200 µM.
For `CCCC[C@@H]1[C@H]2CCCN3CCC[C@@H](CN1S(=O)(=O)c1sc(N)nc1C)[C@@H]23`, the IC50 (Coxsackievirus B3) was over 53.8 µM and the CC50 at 48 h [1] was 233 µM.
Work on `CCCC[C@@H]1[C@H]2CCCN3CCC[C@@H](CN1S(=O)(=O)c1cccc(C#N)c1)[C@@H]23` yielded an IC50 (Coxsackievirus B3) of 1.26 µM, a CC50 at 48 h [1] of 183 µM and a selectivity ratio [4] of 146.
`CCCC[C@@H]1[C@H]2CCCN3CCC[C@@H](CN1Cc1ccccc1)[C@@H]23` gave an IC50 (Coxsackievirus B3) of over 22.2 µM and a CC50 at 48 h [1] of 96.2 µM.
With `CCCC[C@@H]1[C@H]2CCCN3CCC[C@@H](CN1C(=O)CCC(=O)OC)[C@@H]23` the IC50 (Coxsackievirus B3) was 11.1 µM, the CC50 at 48 h [1] was over 200 µM and the selectivity ratio [4] was over 18.1.
Compound `CCCC[C@@H]1[C@H]2CCCN3CCC[C@@H](CN1S(=O)(=O)c1ccc(C(N)=O)cc1)[C@@H]23` has an IC50 (Coxsackievirus B3) of 124 µM, a CC50 at 48 h [1] of 331 µM and a selectivity ratio [4] of 2.68.
For `CCCC[C@@H]1[C@H]2CCCN3CCC[C@@H](CN1S(=O)(=O)c1ccc4oc(=O)ccc4c1)[C@@H]23`, the IC50 (Coxsackievirus B3) was 3.21 µM, the CC50 at 48 h [1] was 180 µM and the selectivity ratio [4] was 56.
In the case of `CCCC[C@@H]1[C@H]2CCCN3CCC[C@@H](CN1S(=O)(=O)c1cccs1)[C@@H]23`, the IC50 (Coxsackievirus B3) is reported as 19.4 µM, the CC50 at 48 h [1] is reported as 251 µM and the selectivity ratio [4] is reported as 13.
Work on `CCCC[C@@H]1[C@H]2CCCN3CCC[C@@H](CN1C(=O)c1ccc(OC)cc1)[C@@H]23` yielded an IC50 (Coxsackievirus B3) of 6.17 µM, a CC50 at 48 h [1] of 116 µM and a selectivity ratio [4] of 18.7.
`CCCC[C@@H]1[C@H]2CCCN3CCC[C@@H](CN1S(=O)(=O)CCN)[C@@H]23` gave an IC50 (Coxsackievirus B3) of over 64.7 µM and a CC50 at 48 h [1] of 280 µM.
`NC(=O)c1ncn([C@@H]2O[C@H](CO)[C@@H](O)[C@H]2O)n1` [RIBAVIRIN] gave an IC50 (Coxsackievirus B4) of over 40900 µM, an IC50 (Coxsackievirus B3) of 379 µM and a CC50 at 48 h [1] of 6360 to 40900 µM. For the same compound, the selectivity ratio [3] was over 19.6, the selectivity ratio [4] was 16.8 and the selectivity ratio [5] was over 12.3. It also gave a selectivity ratio [6] of over 17.2, an IC50 [8] of over 40900 µM and a selectivity ratio [9] of over 4.3. The IC50 (Coxsackievirus A16) was 9620 µM.

Reference: ChEMBL document CHEMBL4002621, “Novel 12N-substituted matrinanes as potential anti-coxsackievirus agents” (Bioorg Med Chem Lett, 2017)
